Data on three compounds can be found in patent US20190105409A9, “IMAGING AGENTS WITH IMPROVED PHARMACOKINETIC PROFILES” (GE HEALTHCARE AS, priority 2004, published 2019).

Molecules are shown by their SMILES.

The series is described as follows: Biodistribution of radiolabelled compounds in a Lewis Lung mouse Carcinoma model. Type of series: in vivo. To be noted: for % ID/g kidney / % ID/g liver: tail vein injection of radiolabelled compound, excretion profile monitored at 5, 30, 60 and 120 minutes (time point not given). The method, then:
Biodistribution studies were carried out in a Lewis Lung mouse Carcinoma model as described in Bae et al, Drugs Exp Clin Res, 2003; 29 (1): 15-23. Following tail vein injection of the compounds, e the excretion profile was monitored at 5, 30, 60 and 120 minutes.

On to `O=C(CCN(C1(C(=O)NO)CCCC1)S(=O)(=O)c1ccc(Oc2ccc(F)cc2)cc1)NCCc1ccc(O)c(I)c1` [Compound 2], for which the “% ID/g kidney” value is listed as 7 % ID/g and the “% ID/g liver” value was 71 % ID/g.
On to `NC(=O)C(Cc1ccc(O)c(I)c1)NC(=O)CCOCCOCCOCCOCCOCCOCCOCCOCCOCCOCCOCCOCCNC(=O)CCOCCOCCOCCOCCOCCOCCOCCOCCOCCOCCOCCOCCNC(=O)CCN(C1(C(=O)NO)CCCC1)S(=O)(=O)c1ccc(Oc2ccc(F)cc2)cc1` (stereo not shown) [Compound 4], for which the “% ID/g kidney” value was found to be 70 % ID/g and the “% ID/g liver” value turned out to be 20 % ID/g. Also, the “excretion route / biodistribution in comparison to compounds 2 and 3” value (tail vein injection, conclusion from Table 1) is “preferably excreted via the renal system”.
For `NC(=O)C(Cc1ccc(O)c(I)c1)NC(=O)OC(=O)NCCOCCOCCOCCNC(=O)CCN(C1(C(=O)NO)CCCC1)S(=O)(=O)c1ccc(Oc2ccc(F)cc2)cc1` (stereo not shown) [Compound 3], the “% ID/g kidney” value amounted to 20 % ID/g and the “% ID/g liver” value was 61 % ID/g.
